The text below walks through data of patent publication US20150018566A1, “TUBULIN BINDING AGENTS” (priority 2011, published 2015).

One test concerns the target T1, tubulin (Sus scrofa, UniProt P02550+P02554).
T1 construct: The procedure used is modified from Shelanski et al; from tissue
The experiment in a line: Tubulin assembly assay (tubulin binding). In kind it is biochemical, porcine. As to conditions: under the assay conditions used.

For test [1], the system named is rat aortic ring cultures. The experiment in a line: Aortic ring assay (anti-angiogenic effect). The class given is cell-based.
Test [2] has as its system rat aortic ring cultures. The experiment in a line: Aortic ring assay (anti-vascular model). The class given is cell-based. The conditions noted are these: 1 μM. As to the method: The aortic ring assay is an ideal assay for testing the activity of anti-vascular, anti-angiogenic or pro-angiongenic agents. This method was originally developed and modified by Nicosia. The aorta can be excised from mice or rats, cut into ˜1 mm rings and cultured in either basement membrane matrix (matrigel) or collagen gel. Following incubation for several days the rings start to generate outgrowths of branching microvessels which are lined by endothelial cells and supported by pericytes and fibroblasts. The angiogenic response of the aorta is a self-limited process regulated by endogenous growth factors including bFGF [13], VEGF [14], PDGF [15] and angiopoietins.
The rat aorta model is an ex vivo assay which combines advantages of both in vitro and in vivo models. The process of angiogenesis takes place in a defined culture environment which can be easily adapted to different experimental conditions according to the requirement of the study. The cells of the aortic outgrowth have not been modified by repeated passages in culture and thus newly formed microvessels reproduce the characteristics of the vasculature formed during angiogenesis in vivo [17-18]. There is no influx of leukocytes from circulating blood therefore inflammatory complications which affect the interpretation of in vivo assays are minimised. For the purpose of this study, rat aortic ring cultures were used to investigate firstly the anti-vascular and then the anti-angiogenic activity of test compounds.
The successful growth of the aortic rings into a mircovessel network was dependent on several factors including (i) the amount of periaortic fibroadipose tissue left on the ring, (ii) the orientation of the ring, the way which the ring was embedded into the matrigel and (iii) the volume of the matrigel used.
The aortic ring assay is an ex vivo assay which allows the analyst to examine the inhibition/stimulation of angiogenesis as well as the breakdown of existing vasculature. Basement membrane matrix (matrigel) was stored at −20° C. Prior to use, matrigel vial was placed on ice and kept at 4° C. overnight in order to thaw. The matrigel was kept on ice at all times for the duration of the experiment. Aortic rings were obtained by excising the thoracic aorta of 5-10 weeks old Wistar male rats and removing the fibroadipose tissue from the aortic wall. The rings were obtained by cross-sectioning the aorta at ˜1 mm intervals, removed any blood clots by washing several times with EBM-2. Matrigel (80 μl) was placed uniformly in each well of a 12-well plate and the aortic rings were then placed individually in between the matrigel layer with the lumen perpendicular to the surface of the plate. The matrigel solution was allowed to solidify for 30-40 minutes at 37° C. and 1 ml EBM-2 medium (supplemented with 2% FBS and […] streptomycin/penicillin solution) was added to each culture. The aortic rings were kept in a humidified CO2 incubator at 37° C. and fresh medium was replaced three times a week starting from day 3. Once an established microvessel network was developed (day 7-9), test compounds diluted in EBM-2 medium (1 ml) were added to each well and incubated at 37° C. for 24 h. The cultures were monitored for microvessel breakdown over time and images were taken 1 h, 4 h and 24 h after treatment using an Olympus CKX41 inverted microscope. Images were captured with an E-330 SLR camera system and processed using Cell̂ A software. Each compound concentration was tested in duplicate. Results were presented as images showing the microvessel breakdown at each time point.

Molecules are shown by their SMILES.

T1 sequence (P02550 whole entry): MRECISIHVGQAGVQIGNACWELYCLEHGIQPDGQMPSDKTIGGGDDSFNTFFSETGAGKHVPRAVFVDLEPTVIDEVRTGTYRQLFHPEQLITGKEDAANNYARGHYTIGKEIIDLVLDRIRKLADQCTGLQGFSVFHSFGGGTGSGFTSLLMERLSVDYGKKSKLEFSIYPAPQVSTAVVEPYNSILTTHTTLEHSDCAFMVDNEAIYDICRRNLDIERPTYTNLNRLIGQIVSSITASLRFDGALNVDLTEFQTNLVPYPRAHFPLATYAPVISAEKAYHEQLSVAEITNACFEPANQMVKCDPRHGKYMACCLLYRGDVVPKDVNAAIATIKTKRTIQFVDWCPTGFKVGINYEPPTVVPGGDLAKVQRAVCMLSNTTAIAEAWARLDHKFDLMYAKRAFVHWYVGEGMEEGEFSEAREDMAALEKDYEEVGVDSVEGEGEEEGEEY
T1 sequence (P02554 whole entry): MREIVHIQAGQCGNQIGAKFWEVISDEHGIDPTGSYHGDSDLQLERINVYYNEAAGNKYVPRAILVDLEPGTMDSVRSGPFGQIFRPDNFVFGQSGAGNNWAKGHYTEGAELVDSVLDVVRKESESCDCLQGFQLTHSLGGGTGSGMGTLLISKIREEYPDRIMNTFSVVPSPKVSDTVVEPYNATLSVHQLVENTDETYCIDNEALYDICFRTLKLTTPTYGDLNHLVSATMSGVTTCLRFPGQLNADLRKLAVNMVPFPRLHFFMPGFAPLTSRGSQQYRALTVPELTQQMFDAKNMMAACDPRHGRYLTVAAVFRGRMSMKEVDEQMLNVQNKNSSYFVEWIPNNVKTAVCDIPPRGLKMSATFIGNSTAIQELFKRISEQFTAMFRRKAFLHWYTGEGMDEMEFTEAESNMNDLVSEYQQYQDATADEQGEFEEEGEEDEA
Description for tubulin: The buffer was prepared with deionised water and the pH of the solution was adjusted to 6.6 by the drop-wise addition of 10M aq. NaOH. The buffer was stored at 4° C. prior to use.
Equipment: A Fluostar Optima 96 well plate reader equipped with a thermostat capability.
The tubulin assembly was followed by observing an increase in optical density of a tubulin solution at 350 nm at 37° C. Typically 1 ml of tubulin solution was diluted with EB (5 ml) and GTP solution (25 μl, 5 μl per ml of EB added) to the mixture. The mixture was vortexed for ten seconds in order to ensure the homogeneity of the mixture. 100 μl of the resultant solution was pipetted into a well in the 96 well plate. The increase in optical density of the tubulin solution was measured over a time course of ten minutes at 350 nm and 37° C. […] Accordingly, adjustments were made to the quantity of buffer added in order to obtain a protein concentration within the desired range. […] Tubulin solution (1000 was subsequently pipetted into each of the same three wells. The plate was immediately incubated at 37° C. and was subjected to orbital shaking for five seconds. The UV absorption was measured at 350 nm over a time course of ten minutes. The maximum slope of the resulting curve was measured. The slope of the blank represents the maximum rate of tubulin polymerisation.

Turning to `COc1ccc(C2=CC(=O)CCc3cc(OC)c(OC)c(OC)c32)cc1O` [Compound 12, 9-(3-hydroxy-4-methoxyphenyl)-1,2,3-trimethoxy-6,7-dihydro-5H-benzo[a]cyclohepten-7-one], the “tubulin binding activity (in words)” value on tubulin is “inactive”.

In the case of `COc1ccc(C2=C/C(=N/OCC(=O)NO)CCc3c2cc(OC)c(OC)c3OC)cc1N` [Compound 30, 2-[9-(3-Amino-4-methoxy-phenyl)-2,3,4-trimethoxy-5,6-dihydro-benzocyclohepten-7-ylideneaminooxy]-N-hydroxy-acetamide], in the test with rat aortic ring cultures [1] (0.1 μM), the “anti-angiogenic effect (microvessel area)” value is listed as “negligible reduction”. The “anti-angiogenic effect (microvessel density)” value with rat aortic ring cultures [1] (1 μM) is on record as “significantly (p<0.01) lower microvessel density”. For the same molecule, the “anti-vascular effect on established microvessel network” value is “satisfactory activity” with rat aortic ring cultures [2] (4 h of treatment) and “clear microvessel disruption” with rat aortic ring cultures [2] (24 h incubation).
